These results are taken from PMC10004634 (PLOS ONE, 2023).

Read-outs that look alike come from different tables or passages of the source.

What all share (assay): biochemical
Holding throughout (set-up): KINOMEscan scanMAX competition binding, DNA-tagged kinases, qPCR read-out, percent control at 300 nM
For orientation: Real-time PCR tracks product formation cycle by cycle.

One assay has as its target T1, AXL (Homo sapiens, UniProt P30530).
T1 sequence (P30530 1-894): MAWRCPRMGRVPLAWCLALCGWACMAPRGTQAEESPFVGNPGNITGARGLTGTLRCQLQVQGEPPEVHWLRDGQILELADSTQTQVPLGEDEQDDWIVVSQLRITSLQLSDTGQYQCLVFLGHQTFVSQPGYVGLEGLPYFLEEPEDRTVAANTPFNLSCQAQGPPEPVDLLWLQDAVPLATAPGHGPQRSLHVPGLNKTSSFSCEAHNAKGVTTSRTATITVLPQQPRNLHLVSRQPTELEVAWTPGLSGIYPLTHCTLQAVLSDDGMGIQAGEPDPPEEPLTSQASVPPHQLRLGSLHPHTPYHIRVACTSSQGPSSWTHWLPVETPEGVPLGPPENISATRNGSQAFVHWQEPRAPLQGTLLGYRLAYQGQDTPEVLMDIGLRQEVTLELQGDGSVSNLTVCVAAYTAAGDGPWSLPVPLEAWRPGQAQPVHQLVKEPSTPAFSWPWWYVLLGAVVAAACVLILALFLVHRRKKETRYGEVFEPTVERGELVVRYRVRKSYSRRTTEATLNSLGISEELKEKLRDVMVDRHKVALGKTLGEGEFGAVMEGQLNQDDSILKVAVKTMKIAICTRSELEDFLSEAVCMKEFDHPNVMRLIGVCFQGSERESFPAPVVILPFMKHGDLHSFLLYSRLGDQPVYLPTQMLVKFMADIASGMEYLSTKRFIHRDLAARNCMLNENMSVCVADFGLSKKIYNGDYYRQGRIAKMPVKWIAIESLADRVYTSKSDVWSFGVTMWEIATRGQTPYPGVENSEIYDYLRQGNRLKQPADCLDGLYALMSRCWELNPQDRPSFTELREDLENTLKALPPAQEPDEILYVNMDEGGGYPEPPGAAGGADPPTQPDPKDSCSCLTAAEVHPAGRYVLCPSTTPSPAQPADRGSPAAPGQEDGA

The next assay deals with T2, FLT3(N841I) (Homo sapiens, UniProt P36888, N841I).
T2 sequence (P36888 1-993 N841I): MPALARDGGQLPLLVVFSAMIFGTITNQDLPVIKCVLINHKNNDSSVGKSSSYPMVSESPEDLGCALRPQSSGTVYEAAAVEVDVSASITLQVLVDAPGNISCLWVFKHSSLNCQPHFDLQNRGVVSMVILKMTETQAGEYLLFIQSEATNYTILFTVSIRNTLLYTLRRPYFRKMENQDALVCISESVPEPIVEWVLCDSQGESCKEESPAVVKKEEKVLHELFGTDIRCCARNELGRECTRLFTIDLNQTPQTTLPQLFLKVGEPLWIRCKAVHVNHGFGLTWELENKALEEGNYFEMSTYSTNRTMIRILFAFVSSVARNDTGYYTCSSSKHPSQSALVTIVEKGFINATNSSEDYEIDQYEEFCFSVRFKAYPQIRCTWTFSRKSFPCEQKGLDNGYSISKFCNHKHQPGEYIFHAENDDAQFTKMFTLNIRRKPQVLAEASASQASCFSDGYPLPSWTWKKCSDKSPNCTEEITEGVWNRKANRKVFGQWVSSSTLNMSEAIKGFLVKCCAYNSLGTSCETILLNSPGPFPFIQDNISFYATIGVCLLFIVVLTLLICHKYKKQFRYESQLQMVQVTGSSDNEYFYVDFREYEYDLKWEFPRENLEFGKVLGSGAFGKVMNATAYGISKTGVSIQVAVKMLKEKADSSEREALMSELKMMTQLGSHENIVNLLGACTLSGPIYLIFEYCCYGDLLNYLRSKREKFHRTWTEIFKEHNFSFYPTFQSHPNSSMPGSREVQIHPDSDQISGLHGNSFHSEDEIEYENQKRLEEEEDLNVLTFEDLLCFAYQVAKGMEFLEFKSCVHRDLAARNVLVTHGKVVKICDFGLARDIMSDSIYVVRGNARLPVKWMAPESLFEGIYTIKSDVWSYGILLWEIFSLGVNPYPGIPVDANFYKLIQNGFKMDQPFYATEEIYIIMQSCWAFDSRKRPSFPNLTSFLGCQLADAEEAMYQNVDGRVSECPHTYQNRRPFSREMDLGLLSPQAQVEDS

The target in a further assay is NEK4 (Homo sapiens, UniProt P51957).
The target of another assay is SLK (Homo sapiens, UniProt Q9H2G2).
Setting [1] is: read-out: Percent control / Zanubrutinib.
The mark [2] stands for this setting: read-out: Percent control / Tirabrutinib.
[3] abbreviates: read-out: Percent control / Ibrutinib.
Where [4] appears, read: read-out: Percent control / Acalabrutinib.

NEK4, sequence (P51957 whole entry): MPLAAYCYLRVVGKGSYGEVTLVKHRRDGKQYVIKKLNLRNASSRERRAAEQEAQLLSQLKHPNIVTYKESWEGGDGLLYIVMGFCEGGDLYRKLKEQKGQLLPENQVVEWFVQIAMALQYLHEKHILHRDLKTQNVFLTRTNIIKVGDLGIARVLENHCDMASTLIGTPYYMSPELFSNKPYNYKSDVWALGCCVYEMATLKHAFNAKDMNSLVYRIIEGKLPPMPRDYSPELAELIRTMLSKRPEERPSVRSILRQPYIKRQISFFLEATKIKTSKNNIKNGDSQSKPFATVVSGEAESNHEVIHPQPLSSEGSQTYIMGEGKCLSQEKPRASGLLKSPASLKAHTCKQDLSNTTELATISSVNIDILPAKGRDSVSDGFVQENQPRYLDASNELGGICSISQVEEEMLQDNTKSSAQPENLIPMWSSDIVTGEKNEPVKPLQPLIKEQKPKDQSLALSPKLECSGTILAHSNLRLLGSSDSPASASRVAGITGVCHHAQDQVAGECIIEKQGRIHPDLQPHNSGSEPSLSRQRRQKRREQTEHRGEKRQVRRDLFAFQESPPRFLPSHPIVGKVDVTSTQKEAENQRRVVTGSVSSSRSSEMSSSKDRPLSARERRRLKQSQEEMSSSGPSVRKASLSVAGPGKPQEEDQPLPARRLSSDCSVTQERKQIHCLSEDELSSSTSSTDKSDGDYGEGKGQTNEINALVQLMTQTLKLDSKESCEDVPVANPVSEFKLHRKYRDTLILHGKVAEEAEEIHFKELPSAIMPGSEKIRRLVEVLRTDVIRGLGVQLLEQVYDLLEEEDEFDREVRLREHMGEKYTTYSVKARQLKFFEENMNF
SLK, sequence (Q9H2G2 whole entry): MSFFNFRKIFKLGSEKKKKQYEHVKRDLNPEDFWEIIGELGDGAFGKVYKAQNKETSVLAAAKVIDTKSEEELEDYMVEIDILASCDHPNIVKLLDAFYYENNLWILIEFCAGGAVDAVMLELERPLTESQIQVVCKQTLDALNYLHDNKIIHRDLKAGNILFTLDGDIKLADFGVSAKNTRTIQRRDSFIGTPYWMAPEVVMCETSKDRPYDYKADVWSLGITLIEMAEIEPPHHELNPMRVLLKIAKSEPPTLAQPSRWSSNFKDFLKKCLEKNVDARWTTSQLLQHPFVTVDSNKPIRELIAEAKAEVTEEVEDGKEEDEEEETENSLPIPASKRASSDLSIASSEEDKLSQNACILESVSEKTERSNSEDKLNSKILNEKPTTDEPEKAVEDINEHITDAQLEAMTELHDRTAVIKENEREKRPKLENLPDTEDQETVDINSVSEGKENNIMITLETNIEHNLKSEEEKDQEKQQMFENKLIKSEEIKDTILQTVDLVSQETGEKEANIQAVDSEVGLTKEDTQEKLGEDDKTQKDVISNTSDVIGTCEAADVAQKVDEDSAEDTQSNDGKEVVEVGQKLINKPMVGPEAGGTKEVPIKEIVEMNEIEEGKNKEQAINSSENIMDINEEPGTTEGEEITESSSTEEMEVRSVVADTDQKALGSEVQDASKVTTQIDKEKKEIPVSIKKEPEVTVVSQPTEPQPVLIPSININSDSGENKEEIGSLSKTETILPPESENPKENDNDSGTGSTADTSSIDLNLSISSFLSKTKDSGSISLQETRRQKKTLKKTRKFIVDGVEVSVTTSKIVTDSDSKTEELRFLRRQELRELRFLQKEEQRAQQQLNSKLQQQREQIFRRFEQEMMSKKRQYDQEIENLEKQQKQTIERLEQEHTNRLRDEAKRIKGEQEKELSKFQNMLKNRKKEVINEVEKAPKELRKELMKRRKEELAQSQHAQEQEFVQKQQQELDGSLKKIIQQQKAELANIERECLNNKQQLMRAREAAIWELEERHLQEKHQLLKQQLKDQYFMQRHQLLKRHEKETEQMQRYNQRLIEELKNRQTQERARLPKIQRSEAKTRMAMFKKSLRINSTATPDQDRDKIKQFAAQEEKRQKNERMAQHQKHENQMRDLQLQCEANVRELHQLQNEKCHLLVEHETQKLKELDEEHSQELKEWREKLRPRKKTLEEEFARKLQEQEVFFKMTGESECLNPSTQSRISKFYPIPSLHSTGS

Take `C=CC(=O)N1CCC([C@@H]2CCNc3c(C(N)=O)c(-c4ccc(Oc5ccccc5)cc4)nn32)CC1` [Zanubrutinib]: the remaining binding at 0.3 µM on AXL (setting [1]) is 91%; on FLT3(N841I) (setting [1]) it was 100%; at NEK4 (setting [1]), 100%; on SLK (setting [1]), 99%.
With `CC#CC(=O)N1CC[C@@H](n2c(=O)n(-c3ccc(Oc4ccccc4)cc3)c3c(N)ncnc32)C1` [Tirabrutinib], the remaining binding at 0.3 µM at NEK4 (setting [2]) was 99%; on SLK (setting [2]), 93%.
For `C=CC(=O)N1CCC[C@@H](n2nc(-c3ccc(Oc4ccccc4)cc3)c3c(N)ncnc32)C1` [Ibrutinib], the remaining binding at 0.3 µM on AXL (setting [3]) was 85%; at FLT3(N841I) (setting [3]) it was 39%; on SLK (setting [3]) it was 92%.
Take `CC#CC(=O)N1CCC[C@H]1c1nc(-c2ccc(C(=O)Nc3ccccn3)cc2)c2c(N)nccn12` [Acalabrutinib]: the remaining binding at 0.3 µM on AXL (setting [4]) was 88%; on FLT3(N841I) (setting [4]), 85%; on NEK4 (setting [4]), 88%; at SLK (setting [4]) it was 88%.
